Experimental data as given in publication PMC8000448, “Inhibitory Effects of Schisandra Lignans on Cytochrome P450s and Uridine 5′-Diphospho-Glucuronosyl Transferases in Human Liver Microsomes” (Pharmaceutics, 2021).
Where two headings read alike, the source gives them in different places.

Tests used:
CYP1A2 [1] = target: T1, CYP1A2 (Homo sapiens, UniProt P05177); experiment: CYP1A2 inhibition in HLMs (phenacetin, cocktail, IC50 and IC50 shift); assay type: in vitro ADME
T1 construct: pooled HLMs (0.25 mg/mL); tissue XenoTech H2630; host or cells: pooled human liver microsomes, mixed gender
T1 sequence (P05177 1-516): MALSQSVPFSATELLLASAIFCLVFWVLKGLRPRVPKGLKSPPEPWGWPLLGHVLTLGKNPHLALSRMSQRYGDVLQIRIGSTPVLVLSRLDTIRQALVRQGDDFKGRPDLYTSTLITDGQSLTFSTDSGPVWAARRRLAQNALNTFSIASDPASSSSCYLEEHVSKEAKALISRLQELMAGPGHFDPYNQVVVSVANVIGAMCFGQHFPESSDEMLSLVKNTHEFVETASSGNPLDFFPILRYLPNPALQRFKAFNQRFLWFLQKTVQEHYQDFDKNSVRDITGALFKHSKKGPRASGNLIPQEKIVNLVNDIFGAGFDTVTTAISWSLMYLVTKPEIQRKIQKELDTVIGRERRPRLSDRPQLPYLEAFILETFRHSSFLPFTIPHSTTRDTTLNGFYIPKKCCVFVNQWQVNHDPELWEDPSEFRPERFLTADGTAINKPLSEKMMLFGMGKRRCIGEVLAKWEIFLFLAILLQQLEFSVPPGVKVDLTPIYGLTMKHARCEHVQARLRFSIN
Experimental: (§1) Lignans were first dissolved in methanol. […] All microsomal incubations were performed in triplicate.

CYP2C19 [2] = system: CYP2C19; design: method as in PMID 15342469; conditions: cited from earlier work
CYP1A2 [3] = system: CYP1A2; design: method as in PMID 15342469; conditions: cited from earlier work
CYP3A [4] = conditions: rats; cited from earlier work
CYP2C19 [5] = target: CYP2C19 (Homo sapiens, UniProt P33261); experiment: in vitro; conditions: microsomes, pH 7.4, IC50 Shift
Experimental: (§2) Lignans were first dissolved in methanol. The final organic solvent concentration in the incubation media was ≤1.0% (v/v). The microsomal incubation was conducted using two cocktail sets containing non-interactive substrates: set A containing phenacetin, bupropion, amodiaquine, diclofenac, S-mephenytoin, and dextromethorphan as substrates for CYP1A2, CYP2B6, CYP2C8, CYP2C9, CYP2C19, and CYP2D6, respectively; and set B containing coumarin and chlorzoxazone as substrates for CYP2A6 and CYP2E1, and midazolam, nifedipine, and testosterone as substrates for CYP3A4 (Table 1). These substrates are known to be selective for each P450 isoforms. Incubation mixtures containing potassium phosphate buffer (0.1 M, pH 7.4), pooled HLMs (0.25 mg/mL), P450 probe substrate cocktails, and lignan (0~50 μM) were pre-incubated at 37 °C (5 min). Following pre-incubation, an NADPH generating system (1.3 mM NADP^+, 3.3 mM G6P, 1 unit/mL G6PDH, and 3.3 mM MgCl2) was added to initiate the reaction, and further incubated for 10 min. The reaction was quenched with 50 μL of cold acetonitrile containing internal standard (IS; 7 nM trimipramine). After centrifugation at 14,000 rpm (5 min at 4 °C), aliquots of supernatants were filtered through a 0.2 μm membrane filter and were measured by liquid chromatography-tandem mass spectrometry (LC-MS/MS). All microsomal incubations were performed in triplicate.

CYP2D6 [6] = system: CYP2D6; design: method as in PMID 15342469; conditions: cited from earlier work
CYP3A [7] = system: CYP3A; design: method as in PMID 20448858; conditions: read-out: IC50, CYP3A-mediated midazolam hydroxylation; cited from earlier work
CYP2C9 [8] = system: CYP2C9; design: method as in PMID 15342469; conditions: cited from earlier work
CYP2D6 [9] = target: CYP2D6 (Homo sapiens, UniProt P10635); experiment: CYP2D6 inhibition in HLMs (dextromethorphan)
Experimental: as §2

CYP2C9 [10] = target: CYP2C9 (Homo sapiens, UniProt P11712); experiment: in vitro; conditions: microsomes, pH 7.4, IC50 Shift
Experimental: as §2

recombinant CYP3A4 [11] = conditions: rCYP3A4, fluorescent substrate; cited from earlier work
nine P450 enzymes = experiment: P450 inhibition in HLMs, summary statements over several isoforms; assay type: in vitro ADME, human; conditions: HLMs pre-incubated in the presence of NADPH
Experimental: as §1

[12] = system: P450s other than CYP1A2, CYP2B6, CYP2C19, CYP2E1 and CYP3A (range over several isoforms); experiment: as above; assay type: in vitro ADME, human; conditions: human, pooled human liver microsomes, pH 7.4, probe P450 probe substrate cocktails (sets A and B); HLMs; reversible inhibition; P450s other than CYP1A2, CYP2B6, CYP2C19, CYP2E1 and CYP3A
Experimental: as §1

CYP3A [13] = system: CYP3A; design: method as in PMID 15342469; conditions: read-out: IC50, CYP3A-mediated testosterone hydroxylase activity; cited from earlier work
six UGT enzymes = experiment: UGT inhibition in HLMs, summary statements over several isoforms; assay type: in vitro ADME, human; conditions: UGTs other than UGT1A1 and UGT1A3
Experimental: The inhibitory potential of six lignans on six UGT activities was evaluated using the previously developed cocktail method with slight modifications. […] These substrates are known to be selective for each UGT isoforms.

recombinant CYP3A4 [14] = conditions: recombinant CYP3A4 isoform; read-out: IC50, CYP3A-mediated midazolam 1′-hydroxylation; cited from earlier work
UGT1A3 = system: UGT1A3; design: method as in PMID 23339253; conditions: cited from earlier work
CYP3A4 = conditions: in the presence of the inhibitor; cited from earlier work
[15] = HLMs, 30 min pre-incubation with NADPH generating system, read-out: IC50 TDI, CYP1A2
[16] = HLMs, reversible inhibition, no 30 min NADPH pre-incubation, read-out: IC50 RI, CYP1A2
[17] = IC50 TDI, 30 min pre-incubation with NADPH generating system

CYP2D6 (Homo sapiens, UniProt P10635), sequence (P10635 whole entry): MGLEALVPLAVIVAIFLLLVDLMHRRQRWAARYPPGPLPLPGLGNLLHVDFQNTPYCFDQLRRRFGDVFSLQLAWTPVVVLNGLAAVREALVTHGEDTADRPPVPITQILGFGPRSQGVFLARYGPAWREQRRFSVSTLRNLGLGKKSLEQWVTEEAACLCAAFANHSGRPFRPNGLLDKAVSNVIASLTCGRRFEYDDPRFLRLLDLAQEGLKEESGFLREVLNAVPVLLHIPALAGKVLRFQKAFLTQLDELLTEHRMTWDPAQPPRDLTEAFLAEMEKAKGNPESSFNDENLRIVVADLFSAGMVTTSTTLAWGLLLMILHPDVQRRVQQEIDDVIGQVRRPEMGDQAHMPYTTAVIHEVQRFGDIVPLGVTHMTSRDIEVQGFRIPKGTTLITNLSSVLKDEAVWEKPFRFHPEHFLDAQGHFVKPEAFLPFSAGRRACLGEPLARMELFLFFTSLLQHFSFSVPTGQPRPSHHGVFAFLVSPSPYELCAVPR
CYP2C9 (Homo sapiens, UniProt P11712), sequence (P11712 whole entry): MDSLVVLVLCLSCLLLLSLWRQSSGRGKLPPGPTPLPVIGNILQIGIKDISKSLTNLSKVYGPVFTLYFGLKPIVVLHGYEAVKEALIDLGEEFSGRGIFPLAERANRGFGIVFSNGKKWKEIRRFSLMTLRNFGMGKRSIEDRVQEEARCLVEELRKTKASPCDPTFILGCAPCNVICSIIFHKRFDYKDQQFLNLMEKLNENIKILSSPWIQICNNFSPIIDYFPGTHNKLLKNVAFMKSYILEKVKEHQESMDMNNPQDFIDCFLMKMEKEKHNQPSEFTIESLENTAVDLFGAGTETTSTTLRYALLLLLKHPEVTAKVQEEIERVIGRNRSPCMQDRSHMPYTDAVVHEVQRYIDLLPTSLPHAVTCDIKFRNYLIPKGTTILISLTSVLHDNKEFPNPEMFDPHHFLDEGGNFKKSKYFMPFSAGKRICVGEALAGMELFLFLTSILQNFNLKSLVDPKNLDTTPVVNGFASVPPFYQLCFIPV
CYP2C19 (Homo sapiens, UniProt P33261), sequence (P33261 whole entry): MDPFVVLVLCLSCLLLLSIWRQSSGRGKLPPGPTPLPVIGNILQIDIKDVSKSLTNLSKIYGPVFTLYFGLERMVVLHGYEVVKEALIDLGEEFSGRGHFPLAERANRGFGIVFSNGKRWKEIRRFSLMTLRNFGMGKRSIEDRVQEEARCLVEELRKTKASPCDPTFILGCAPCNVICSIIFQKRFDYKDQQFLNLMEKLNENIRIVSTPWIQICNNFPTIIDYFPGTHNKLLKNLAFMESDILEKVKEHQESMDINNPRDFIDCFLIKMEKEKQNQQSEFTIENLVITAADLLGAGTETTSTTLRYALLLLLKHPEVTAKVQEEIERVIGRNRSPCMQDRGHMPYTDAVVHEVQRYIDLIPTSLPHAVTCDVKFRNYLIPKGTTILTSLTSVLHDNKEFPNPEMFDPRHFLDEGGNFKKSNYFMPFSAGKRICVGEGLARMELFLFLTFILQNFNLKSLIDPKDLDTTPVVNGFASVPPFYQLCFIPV

SMILES | IC50 (CYP1A2 [1]; [15]) | IC50 (CYP1A2 [1]; [16]) | IC50 (CYP2C19 [2]) | IC50 (CYP1A2 [3]) | IC50 (CYP2D6 [6]) | IC50 (CYP2C9 [8]) | IC50 (CYP2D6 [9]; IC50 RI, reversible inhibition) | IC50 (CYP2D6 [9]; [17]) | other results
COc1cc2c(c(OC)c1OC)-c1c(cc3c(c1OC)OCO3)C[C@H](C)[C@H](C)C2 [Gomisin N, gomisin N] | > 50 µM | > 50 µM | > 10 µM | > 10 µM | > 10 µM | > 10 µM | 42 µM | > 50 µM | Oral bioavailability of drugs metabolized by CYP3A, including midazolam (CYP3A [4]): increase; IC50 shift at 10 min (CYP2C19 [5]): > 1.8; IC50 (CYP3A [7]): 5.5 µM; IC50 shift at 10 min (CYP2C9 [10]): > 1.8
COc1cc2c(c(OC)c1OC)-c1c(cc(OC)c(OC)c1OC)C[C@](C)(O)[C@@H](C)C2 [Schisandrin, schisandrin] |  |  |  |  |  |  | 40.2 µM | > 50 µM | IC50 (CYP1A2 [1]; IC50 RI, CYP1A2, HLMs, reversible inhibition, no 30 min NADPH pre-incubation): 4 µM; IC50 (CYP1A2 [1]; IC50 TDI, CYP1A2, HLMs, 30 min pre-incubation with NADPH generating system): > 50 µM; IC50 (recombinant CYP3A4 [11]): 32 µM; Inhibitory potential against nine P450s after pre-incubation with NADPH compared to untreated HLMs (nine P450 enzymes): did not increase; IC50 at 10 min [12]: 22 to 43 µM
COc1c2c(cc3c1-c1c(cc4c(c1OC)OCO4)C[C@H](C)[C@H](C)C3)OCO2 [Wuweizisu C, wuweizisu C] | 22.4 µM | 25.6 µM |  |  |  |  | 20.3 µM | 28.2 µM | 
COc1cc2c(c(OC)c1OC)-c1c(cc3c(c1OC)OCO3)C[C@H](C)[C@](C)(O)[C@H]2OC(=O)c1ccccc1 [Gomisin C, gomisin C] | > 50 µM | > 50 µM | > 10 µM | > 10 µM | > 10 µM | > 10 µM | > 50 µM | > 50 µM | IC50 (CYP3A [13]): 0.26 to 0.62 µM; IC50 (six UGT enzymes): > 50 µM; IC50 (recombinant CYP3A4 [14]): 0.059 µM; IC50 (UGT1A3): 12.5 µM; Estimated increase of AUC of drugs predominantly biotransformed by CYP3A4 (CYP3A4): 22–321%
